Results on 2 compounds are retold here after patent publication US10242153B2, “Method for determining the risk profile of neoplastic tissue” (NOVAZOI THERANOSTICS, priority 2014, dated 2019).

In one series the test system is MDA-MB-231 (231) cells. As to the kind of experiment: Peak subG1 fraction by flow cytometry (propidium iodide) after declustering drugs, 231 cells. It counts as cell-based, human. As for the experimental part: To evaluate the impact of putative declustering drugs on cell cycle progression and hypodiploidy (<2N DNA content, which may indicate apoptotic cells), MDA-MB-231 (231), PC3, and HeLa cells were treated with different concentrations of declustering drugs, stained with propidium iodide, labeled with anti-MPM2 antibody, and then assessed by flow cytometry at multiple time points over 48 hr. […] The duration, highest degree, and rapidity of onset of MA varied between drugs, drug concentrations, and cell lines (data not shown). In general, the maximum MA achieved was less pronounced in Nos- and PJ-treated cells. Drug-induced onset of MA was corroborated by substantial increases in cyclin B1 levels in all cell lines. For most cases, prolonged MA (˜24 hr in duration) was followed by a substantial increase in the subG1 population fraction. […] Instances where the subGl fraction was elevated without cleaved caspase-3 may either represent caspase-independent cell death or the presence of hypodiploid cells whose fate is unclear. In general, no consistent associations between the extent, duration, or timing of MA within drugs or across cell lines was found.
In general terms: A flow cytometer gives signals particle by particle.

Series [1] relates to N1E-115 cells. As to the kind of experiment: Interphase declustering index (DI) in N1E-115 cells. The format is cell-based, murine. Particulars: 6-h treatment, 25 interphase cells, drugs at their respective IC50 concentrations. As for the experimental part:
To evaluate their effect on interphase clustering, N1E-115 cells were treated with these drugs at their respective IC50 concentrations for 0, 3, 6 and 9 h and co-immunostained for γ-tubulin and α-tubulin to evaluate centrosomal spread and microtubule nucleation status, respectively.
Cell cycle phases were further evaluated via lamin A/C immunostaining to distinguish interphase declustering events from prophase centrosomal spread. To quantitate the spread of the interphase centrosomal cluster, a 3D reconstruction of z-stack images of 25 randomly-selected interphase cells from the 6-h treatment group of each drug were generated. By defining an ROI (region of interest) around the interphase centrosomal cluster, the volume of the cluster spread was calculated using Volocity software. Likewise, defining an ROI using the cell periphery provided the cell volume.

For series [2], the system named is N1E-115 cells. The series can be described thus: Golgi (GM130) and γ-tubulin co-immunostaining of drug-treated N1E-115 cells. The following applies: data not shown. The format is cell-based, murine. The source says:
The Golgi, which is primarily responsible for posttranslational modification and protein sorting, also functions as a microtubule-organizing center (MTOC). It has been hypothesized that supernumerary centrosomes may better organize the Golgi to enhance directional cell migration. To investigate what happens to the Golgi upon declustering drug-induced dispersal of the interphase centrosomal cluster, drug-treated N1E-115 cells were co-immunostained with GM130 (a cis-Golgi matrix protein crucial for maintaining its structure) and γ-tubulin.

In series [3] the test system is ZR-75-30 cells with amplified centrosomes (ZR-A). The series can be described thus: Sub-G1 population in ZR-75-30 cells with amplified centrosomes (ZR-A) versus parent cells. The format is cell-based. Particulars: 25 μM, 48 h. As for the experimental part:
Panel A depicts representative DNA histograms comparing cell-cycle kinetics of ZR-75-30 cells and ZR-A cells treated with bromonoscapine (BN, 25 μM), griseofulvin (GF, 25 μM) or PJ34 (25 μM), respectively for 48 h. […] Panel B depicts a quantitative comparison of sub-G1 population in ZR-75-30 and ZR-A cells upon treatment with the three drugs with the same concentration (25 μM) for the same duration (48 h).
Accordingly, these cells can be pharmacologically manipulated with aphidicolin to generate extra centrosomes. […] Following aphidicolin wash-out, cells were stained using anti-centrin-2 antibodies to verify extra centrosomes by immunofluorescence confocal microscopy. About ˜60% ZR-75-30 cells generated extra centrosomes (6-8 per cell) and were evaluated for their sensitivity to the three drugs, griseofulvin, bromonoscapine, and PJ34, and compared with parent ZR-75-30 cells with normal centrosomes.

Another series has as its system 231 cells. As to the kind of experiment: Centrosome amplification (CA) by microscopy (γ-tubulin/centrin-2 foci), 231 cells. The format is cell-based, human. As for the experimental part: Consequently, CA was assessed in cultures treated with different concentrations of declustering drugs for 6, 12, 18, or 24 h and untreated controls via microscopy. Centrosomes were identified by γ-tubulin and centrin-2 colocalization at discrete foci. […] The peak percent CA detected over 24 h is shown in FIG. 13 (only statistically significant (P<0.05) increases over control values are represented in the Figures). To better understand the “potency” of drug-induced CA with time, the average fold change in CA over controls over 24 h was assessed (FIG. 12, panel A), whereby the extent of CA across time points (i.e., 6, 12, 18, and 24 hr) was averaged and then divided by the extent of CA in control (i.e., 0 hr). All of the drugs at least doubled the peak extent of CA in all cell lines tested (FIG. 12, panel A), although the final extent of CA could be small or large in magnitude depending on the initial centrosomal burden as shown in FIG. 11. […] The peak extent in interphase HeLa cells was somewhat less at 30.7% and 48.1% for 10 and 25 μM RBN, respectively (FIG. 13, panel A). For Nos and BN, there was no major difference in CA levels in interphase versus mitotic cells.

Another series has as its system 231, HeLa and PC3 cells. The series can be described thus: Centrosome amplification (CA) by microscopy across cancer cell lines. It counts as cell-based. The following applies: 25 μM. As for the experimental part:
Consequently, CA was assessed in cultures treated with different concentrations of declustering drugs for 6, 12, 18, or 24 h and untreated controls via microscopy. Centrosomes were identified by γ-tubulin and centrin-2 colocalization at discrete foci.
The peak percent CA detected over 24 h is shown in FIG. 13 (only statistically significant (P<0.05) increases over control values are represented in the Figures).
To better understand the “potency” of drug-induced CA with time, the average fold change in CA over controls over 24 h was assessed (FIG. 12, panel A), whereby the extent of CA across time points (i.e., 6, 12, 18, and 24 hr) was averaged and then divided by the extent of CA in control (i.e., 0 hr). All of the drugs at least doubled the peak extent of CA in all cell lines tested (FIG. 12, panel A), although the final extent of CA could be small or large in magnitude depending on the initial centrosomal burden as shown in FIG. 11. […] The extent of CA was less in interphase cells, with maximum values of 31% and 87% for 10 and 25 μM RBN (FIG. 13, panel A). […] The peak extent in interphase HeLa cells was somewhat less at 30.7% and 48.1% for 10 and 25 μM RBN, respectively (FIG. 13, panel A). For Nos and BN, there was no major difference in CA levels in interphase versus mitotic cells.

Series [4] concerns human ovarian cancer xenografts. The following applies: nude mice carrying human ovarian cancer xenografts; cited from earlier work. In general terms: A xenograft is tissue or cells of one species grown in another, often human tumour cells in immunodeficient mice.

Regarding `CN(C)CC(=O)Nc1ccc2[nH]c(=O)c3ccccc3c2c1` [PJ, PJ-34], the “Peak subG1 percents over 48 h” value in the series with MDA-MB-231 (231) cells (10 μM) is given as 37.0%. Moreover, in the series with MDA-MB-231 (231) cells (25 μM), the “Peak subG1 percents over 48 h” value is 65.0% and the “maximum (peak) subG1 fraction relative to control” value is reported as 10.4 × control. In addition, the “interphase declustering index (DI): ratio of average cluster volume to average cell volume” value with N1E-115 cells [1] came out at 0.14. Moreover, the “fragmentation of the interphase Golgi complex” value in the series with N1E-115 cells [2] is “interphase Golgi complex fragmented”. Also, the “sub-G1 population versus parent ZR-75-30 cells” value in series [3] was “much higher sub-G1 population compared to parent ZR-75-30 cells”.

Consider reduced-9-bromonoscapine [RBN], for which the “Peak subG1 percents over 48 h” value came out at 47.0% with MDA-MB-231 (231) cells (10 μM) and 80.8% in the series on MDA-MB-231 (231) cells (25 μM). For the same compound, in the series with MDA-MB-231 (231) cells (25 μM), the “maximum (peak) subG1 fraction relative to control” value is recorded as 25 × control. Besides, in the series with 231 cells (231 cells, 25 μM), the “change of peak CA extent over controls” value is reported as “slightly more than doubled”. The “final extent of CA” value in the series on 231 cells (231 cells, 25 μM, cell cycle stage not stated) is on record as “around 90%”. Also, the “maximum extent of CA” value in the series on 231 cells (interphase 231 cells, 10 μM) is recorded as 31%; in the series with 231 cells (interphase 231 cells, 25 μM), 87%; in the series with 231 cells (mitotic 231 cells, 10 μM), 56%; with 231 cells (mitotic 231 cells, 25 μM), 96%. For the same compound, the “increase in CA over controls” value was ~2.5 fold with 231 cells (mitotic 231 cells, 10 μM) and ~2.0 fold in the series with 231 cells (mitotic 231 cells, 25 μM). Further, the “induction of CA” value with 231, HeLa and PC3 cells is on record as “induced CA in all three cell lines”. The “interphase declustering index (DI): ratio of average cluster volume to average cell volume” value with N1E-115 cells [1] worked out at 0.36. Moreover, the “fragmentation of the interphase Golgi complex” value with N1E-115 cells [2] was “most robust effect”. In addition, the “toxicity in normal tissues” value in series [4] is on record as “toxicity was not detected”. For the same compound, the tumor progression result in series [4] was “inhibited tumor progression”.
